Source: US20240158446A1, “CYCLIC COMPOUND HAVING SELECTIVE INHIBITORY ACTION ON KRAS OVER HRAS AND NRAS” (CHUGAI SEIYAKU KABUSHIKI KAISHA, priority 2021, published 2024)
Where two headings read alike, the source gives them in different places. Where a SMILES comes first, the peptide text is derived from it. Bridges are numbered along the chain shown (N, C = ends). [ ]: non-standard residue; d: D form. The star is where a group is joined. hPhe(3-Cl-4-CF3) = N[C@@H](CCc1ccc(C(F)(F)F)c(Cl)c1)C(=O)O; NPrPhe(4-CF3) = CCCN[C@@H](Cc1ccc(C(F)(F)F)cc1)C(=O)O; NMeAbu(4,4,4-F3) = CN[C@@H](CC(F)(F)F)C(=O)O; NMeGly(cPent) = CN[C@H](C(=O)O)C1CCCC1; Pro(4,4-F2) = O=C(O)[C@@H]1CC(F)(F)CN1; Gly(cBu) = N[C@H](C(=O)O)C1CCC1; NMeD = CN[C@@H](CC(=O)O)C(=O)O; NMeL = CN[C@@H](CC(C)C)C(=O)O; Morpholide = C1CN(*)CCO1; NMeA = CN[C@@H](C)C(=O)O; Ac5c = NC1(C(=O)O)CCCC1; Aze = O=C(O)[C@@H]1CCN1; Sar = CNCC(=O)O

What was measured:
[1] = target: GDP-bound KRAS wild-type protein (Homo sapiens, UniProt P01116); assay: Binding to KRAS by surface plasmon resonance (SPR), Single Cycle Kinetics; conditions: GDP-bound KRAS wild-type protein, read-out: KRAS KD
[2] = target: GDP-bound NRAS wild-type protein (Homo sapiens, UniProt P01111); assay: Binding to NRAS by surface plasmon resonance (SPR), Single Cycle Kinetics; conditions: for NRAS/KRAS (ratio of KD value for NRAS to KD value for KRAS): SPR, GDP-bound NRAS wild-type protein vs GDP-bound KRAS wild-type protein; for NRAS/KRAS (ratio of KD value with respect to GDP-bound NRAS wild-type protein to KD value with respect to KRAS): SPR KD ratio NRAS/KRAS, class symbols
[3] = target: GDP-bound HRAS wild-type protein (Homo sapiens, UniProt P01112); assay: Binding to HRAS by surface plasmon resonance (SPR), Single Cycle Kinetics; conditions: for HRAS/KRAS (ratio of KD value for HRAS to KD value for KRAS): SPR, GDP-bound HRAS wild-type protein vs GDP-bound KRAS wild-type protein; for HRAS/KRAS (ratio of KD value with respect to GDP-bound HRAS wild-type protein to KD value with respect to KRAS): SPR KD ratio HRAS/KRAS, class symbols
[4] = SPR Single Cycle Kinetics, 1:1 binding model

Chain of GDP-bound NRAS wild-type protein (P01111 whole entry): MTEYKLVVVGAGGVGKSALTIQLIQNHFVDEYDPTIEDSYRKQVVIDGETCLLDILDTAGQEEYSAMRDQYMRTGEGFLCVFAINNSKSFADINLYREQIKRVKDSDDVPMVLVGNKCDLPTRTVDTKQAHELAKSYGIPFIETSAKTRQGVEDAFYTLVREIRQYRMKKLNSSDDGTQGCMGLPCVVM
Chain of GDP-bound KRAS wild-type protein (P01116 whole entry): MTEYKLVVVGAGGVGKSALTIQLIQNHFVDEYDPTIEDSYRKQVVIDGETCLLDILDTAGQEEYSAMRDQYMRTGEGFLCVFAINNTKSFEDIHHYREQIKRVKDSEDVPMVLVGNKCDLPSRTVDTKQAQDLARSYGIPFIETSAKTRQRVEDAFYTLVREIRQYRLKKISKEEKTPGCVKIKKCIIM
Chain of GDP-bound HRAS wild-type protein (P01112 whole entry): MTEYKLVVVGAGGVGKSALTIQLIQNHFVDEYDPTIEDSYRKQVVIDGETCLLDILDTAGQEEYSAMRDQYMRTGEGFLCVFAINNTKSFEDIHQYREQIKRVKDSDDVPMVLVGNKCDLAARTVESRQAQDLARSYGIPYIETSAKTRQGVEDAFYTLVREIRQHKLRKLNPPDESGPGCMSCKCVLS

Row | Kd [1, 4] | Compound | NRAS/KRAS (ratio of KD value for NRAS to KD value for KRAS) [2] | HRAS/KRAS (ratio of KD value for HRAS to KD value for KRAS) [3] | NRAS/KRAS (ratio of KD value with respect to GDP-bound NRAS wild-type protein to KD value with respect to KRAS) [2] | HRAS/KRAS (ratio of KD value with respect to GDP-bound HRAS wild-type protein to KD value with respect to KRAS) [3] | other results
1 | 0.094 nM | CCCN1C(=O)[C@@H]2CCN2C(=O)[C@H](C)N(C)C(=O)[C@H]([C@@H](C)CC)NC(=O)[C@H](CC(F)(F)F)N(C)C(=O)C[C@@H](C(=O)N2CCOCC2)N(C)C(=O)[C@H](C2CCCC2)N(C)C(=O)C2(CCCC2)NC(=O)[C@@H]2CC(F)(F)CN2C(=O)[C@H](CCc2ccc(C(F)(F)F)c(Cl)c2)NC(=O)CN(C)C(=O)[C@@H]1Cc1ccc(C(F)(F)F)cc1 [PP0203] ([NMeAbu(4,4,4-F3)]I[NMeA][Aze][NPrPhe(4-CF3)][Sar][hPhe(3-Cl-4-CF3)][Pro(4,4-F2)][Ac5c][NMeGly(cPent)][NMeD]-Morpholide; lactam N-11) | C (A compound having a KD ratio of 0.1 or more and less than 3 is denoted as C) | C (A compound having a KD ratio of 0.1 or more and less than 3 is denoted as C) |  |  | 
2 | 0.55 nM | CCC[C@H]1C(=O)N[C@@H]([C@@H](C)CC)C(=O)N(C)CC(=O)N(C)[C@H]2C/C=C\CCN(C2=O)[C@@H](Cc2ccc(C(F)(F)F)cc2)C(=O)N(C)CC(=O)N[C@@H](CCc2ccc(C(F)(F)F)c(OC)c2)C(=O)N2CCCCC[C@H]2C(=O)NC2(CC(C)(C)C2)C(=O)N(C)[C@@H](C(CC)CC)C(=O)N(C)[C@H](C(=O)N(C)C)CC(=O)N1C [PP2968] |  |  | AA (a compound having 20 or more is denoted as AA) | A (a compound having 10 or more and less than 20 is denoted as A) | 
3 |  | CC[C@H](C)[C@@H]1NC(=O)[C@H](CC2CC2)N(C)C(=O)C[C@@H](C(=O)N(C)C)N(C)C(=O)[C@H](C2CCCC2)N(C)C(=O)C2(CCC2)NC(=O)[C@@H]2[C@@H](OCC(F)F)CCN2C(=O)[C@H](CCc2cc(F)c(C(F)(F)F)c(F)c2)NC(=O)CN(C)C(=O)[C@H](Cc2ccc(C(F)(F)F)cc2)N2CC/C=C\C[C@@H](C2=O)N(C)C(=O)CN(C)C1=O [PP1533] |  |  |  |  | Kd ([1]; SPR, Single Cycle Kinetics, 1:1 binding model): 0.13 nM; NRAS/KRAS (ratio of KD value for NRAS to KD value for KRAS) ([2]; KD ratio class): AA (a compound having 20 or more is denoted as AA); HRAS/KRAS (ratio of KD value for HRAS to KD value for KRAS) ([3]; KD ratio class): A (a compound having 10 or more and less than 20 is denoted as A)
4 | 0.086 nM | CCO[C@@H]1C[C@H]2C(=O)NC3(CC(C)(C)C3)C(=O)N(C)[C@@H](C(CC)CC)C(=O)N(C)[C@H](C(=O)N(C)C)CC(=O)N(C)[C@H]3CCC/C=C/c4ccc(cc4)C[C@@H](C(=O)N(C)CC(=O)N[C@@H](CCc4cc(F)c(C(F)(F)F)c(F)c4)C(=O)N2C1)N1CC/C=C\C[C@@H](C1=O)N(C)C(=O)CN(C)C(=O)[C@H]([C@@H](C)CC)NC3=O [PP2575] |  |  | A (a compound having 10 or more and less than 20 is denoted as A) | A (a compound having 10 or more and less than 20 is denoted as A) | 
5 | 0.28 nM | CCC[C@H]1C(=O)N[C@@H]([C@@H](C)CC)C(=O)N(C)CC(=O)N(C)[C@H]2C/C=C\CCN(C2=O)[C@@H](Cc2ccc(C(F)(F)F)cc2)C(=O)N(C)CC(=O)N[C@@H](CCc2ccc3sc(F)c(C)c3c2)C(=O)N2C[C@H](OCC)C[C@H]2C(=O)NC2(CC(C)(C)C2)C(=O)N(C)[C@@H](C(CC)CC)C(=O)N(C)[C@H](C(=O)N(C)C)CC(=O)N1C [PP2892] |  |  | A (a compound having 10 or more and less than 20 is denoted as A) | A (a compound having 10 or more and less than 20 is denoted as A) | 
6 |  | CCCN(C)C(=O)[C@@H]1CC(=O)N(C)[C@@H](C2CC2)C(=O)N[C@@H]([C@@H](C)CC)C(=O)N(C)CC(=O)N(C)[C@H]2C/C=C\CCN(C2=O)[C@@H](Cc2ccc(C(F)(F)F)cc2)C(=O)N(C)CC(=O)N[C@@H](CCc2cc(F)c(C(F)(F)F)c(F)c2)C(=O)N2C[C@@H](C)C[C@H]2C(=O)NC2(CCC2)C(=O)N(C)[C@@H](C2CCCC2)C(=O)N1C [PP2081] | A (a compound having 10 or more and less than 20 is denoted as A) | A (a compound having 10 or more and less than 20 is denoted as A) |  |  | Kd ([1]; SPR, Single Cycle Kinetics): 0.12 nM
7 | 0.22 nM | CCCN1C(=O)[C@@H]2CCN2C(=O)[C@H](C)N(C)C(=O)[C@H](C2CCC2)NC(=O)[C@H](CC(C)C)N(C)C(=O)C[C@@H](C(=O)N2CCOCC2)N(C)C(=O)[C@H](C2CCCC2)N(C)C(=O)C2(CCCC2)NC(=O)[C@@H]2CCCN2C(=O)[C@H](CCc2ccc(C(F)(F)F)c(Cl)c2)NC(=O)CN(C)C(=O)[C@@H]1Cc1ccc(C(F)(F)F)cc1 [PP0271] ([NMeL][Gly(cBu)][NMeA][Aze][NPrPhe(4-CF3)][Sar][hPhe(3-Cl-4-CF3)]P[Ac5c][NMeGly(cPent)][NMeD]-Morpholide; lactam N-11) | C (A compound having a KD ratio of 0.1 or more and less than 3 is denoted as C) | B (a compound having 3 or more and less than 10 is denoted as B) |  |  | 
